Patent publication US11339130B1 (Blade Therapeutics, Inc., priority 2016, dated 2022)

Experiments:
[1] = target: T1, human calpain 9 (Homo sapiens, UniProt O14815); assay: Calpain binding: crystal structure interaction distances, human calpain 9; details: for Interaction Distances P1-Gly95 / Interaction Distances P1-Gly189 / Interaction Distances P1-Lys188 / Interaction Distances P1-Ser242 / Interaction Distances P2-Ala255 / Interaction Distances P2-Gly190 / Interaction Distances P2-Gly253 / Interaction Distances P2-His254 / Interaction Distances P2-Phe233 / Interaction Distances P3-Gly189 / Interaction Distances P3-Gly190 / Interaction Distances P3-Ser191: non-polar interactions with human calpain 9; for Interaction Distances R^10-Gly253 / Interaction Distances R^11-Gly190 / Interaction Distances R^12-His254 / Interaction Distances R^13-Cys97 / Interaction Distances R^13-Gln91: polar interactions with human calpain 9
T1 construct: human calpain 9, residues 27-347, was over expressed in E. coli BL21 (DE3); hexa-histidine (N); made in house; host or cells: E. coli BL21 (DE3)
T1 sequence (O14815 27-347): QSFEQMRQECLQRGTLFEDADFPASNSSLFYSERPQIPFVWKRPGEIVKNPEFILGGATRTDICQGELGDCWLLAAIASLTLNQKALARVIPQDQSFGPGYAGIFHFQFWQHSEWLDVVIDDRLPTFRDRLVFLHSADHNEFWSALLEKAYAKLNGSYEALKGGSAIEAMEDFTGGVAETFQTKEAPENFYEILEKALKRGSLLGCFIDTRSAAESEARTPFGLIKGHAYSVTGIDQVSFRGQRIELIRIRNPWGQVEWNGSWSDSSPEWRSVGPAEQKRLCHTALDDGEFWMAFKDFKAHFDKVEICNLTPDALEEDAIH
Protocol: Calpain 9 Protein Preparation: N-terminally hexa-histidine-tagged human calpain 9, residues 27-347, was over expressed in E. coli BL21 (DE3) and purified via Ni-NTA and size-exclusion chromatography with yields >10 mg/liter of culture and >99% purity. The calpain 9 sequence is accession number 014815 at uniprot.org.
(§1) Calpain 9 Crystallization: A 10 mg/ml solution of rat calpain 1 or human calpain 9 (obtained as described above) was prepared in 50 mM tris (pH 8), 0.5 M NaCl, 1 mM EDTA, 1 mM CaCl2), and 1 mM beta-mercaptoethanol against MCSG1 screen condition C2 (Anatrace, Maumee, Ohio) containing 0.2 M LiSO4, 0.1 M bis-tris (pH 5.5), and 25% PEG 3350. The solution contained 2.5 mM of test compound supplemented with 20% ethylene glycol as a cryo-protectant. The bound protein was crystallized using vapor diffusion, sitting drop, at […]. The space group was P 41 21 2, with unit cell dimensions of 97.2 Å, 97.2 Å, 173.4 Å.
Calpain 9 Crystallography data collection and refinement: Data was collected at the APS synchrotron, beamline 21-ID-F at […]. Reflections were collect between 45.0-2.1 Å with completeness of 100%. Reflection data was analyzed using XDS and Xscale (Heidelberg, Germany). Structure was solved using molecular replacement and was refined with PHENIX (Berkeley, Calif.) to an R value of 0.168, Rfree=0.210.
(§2) Key interactions between test compound moieties (with reference to the variables of Formula II) and calpain 1 or calpain 9 residues were determined as set forth in Tables 4-7 below.

[2] = target: T2, rat calpain 1 (Rattus norvegicus, UniProt P97571); assay: Calpain binding: crystal structure interaction distances, rat calpain 1; details: for Interaction Distances P1-Gly113 / Interaction Distances P1-Gly207 / Interaction Distances P1-Met260 / Interaction Distances P1-Ser206 / Interaction Distances P2-Ala273 / Interaction Distances P2-Gly208 / Interaction Distances P2-Gly271 / Interaction Distances P2-His272 / Interaction Distances P2-Ser251 / Interaction Distances P3-Gly207 / Interaction Distances P3-Gly208 / Interaction Distances P3-Ser209: non-polar interactions with rat calpain 1; for Interaction Distances R^10-Gly271 / Interaction Distances R^11-Gly208 / Interaction Distances R^12-His272 / Interaction Distances R^13-Cys115 / Interaction Distances R^13-Gln109: polar interactions with rat calpain 1
T2 construct: made in house
T2 sequence (P97571 29-356 limits assumed): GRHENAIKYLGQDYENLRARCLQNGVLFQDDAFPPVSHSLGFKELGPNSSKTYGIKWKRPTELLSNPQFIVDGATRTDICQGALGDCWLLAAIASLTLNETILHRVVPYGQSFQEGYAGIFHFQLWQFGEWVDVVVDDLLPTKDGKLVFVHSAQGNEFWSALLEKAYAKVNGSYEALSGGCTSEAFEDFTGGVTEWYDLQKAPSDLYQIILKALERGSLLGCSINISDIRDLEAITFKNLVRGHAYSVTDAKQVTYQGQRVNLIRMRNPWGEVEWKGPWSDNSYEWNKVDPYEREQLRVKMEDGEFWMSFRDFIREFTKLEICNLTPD
Protocol: as §1
Calpain 1 preparation, crystallization, and data collection: Suitable constructs for expression of rat calpain 1 had been previously established. Expression was performed according to previously established protocols. A purification protocol was established and homogeneous protein was produced in preparative amounts. The calpain 1 protein was purified comprising affinity and gel filtration chromatography steps. This procedure yielded homogenous protein with a purity greater 95% as judged from Coomassie stained SDS-PAGE. The purified protein was used in crystallization trials with test compounds employing both, a standard screen with approximately 1200 different conditions, as well as crystallization conditions identified using literature data. Conditions initially obtained were optimised using standard strategies, systematically varying parameters critically influencing crystallization, such as temperature, protein concentration, drop ratio, and others. These conditions were also refined by systematically varying pH or precipitant concentrations. Crystals were flashfrozen and measured at a temperature of 100 K. The X-ray diffraction data were collected from complex crystals ligands at a synchrotron source using cryogenic conditions. Data were processed using software programs XDS and XSCALE
as §2

SMILES | Interaction Distances P1-Gly95 [1] [Å] | Interaction Distances P1-Gly189 [1] [Å] | Interaction Distances P1-Lys188 [1] [Å] | Interaction Distances P1-Ser242 [1] [Å] | Interaction Distances P2-Ala255 [1] [Å] | Interaction Distances P2-Gly190 [1] [Å] | Interaction Distances P2-Gly253 [1] [Å] | Interaction Distances P2-His254 [1] [Å] | Interaction Distances P2-Phe233 [1] [Å] | Interaction Distances P3-Gly189 [1] [Å] | Interaction Distances P3-Gly190 [1] [Å] | Interaction Distances P3-Ser191 [1] [Å] | Interaction Distances R^10-Gly253 [1] [Å] | Interaction Distances R^11-Gly190 [1] [Å] | Interaction Distances R^12-His254 [1] [Å] | Interaction Distances R^13-Cys97 [1] [Å] | Interaction Distances R^13-Gln91 [1] [Å] | Interaction Distances P1-Gly113 [2] [Å] | Interaction Distances P1-Gly207 [2] [Å] | Interaction Distances P1-Met260 [2] [Å] | other results
NC(=O)C(=O)[C@H](Cc1ccccc1)NC(=O)c1snnc1-c1ccccc1 [Compound 44, (S)—N-(4-amino-3,4-dioxo-1-phenylbutan-2-yl)-4-phenyl-1,2,3-thiadiazole-5-carboxamide] | 3.6 | 3.4 | 3.7 | 3.7 | 3.9 | 3.0 | 3.4 | 4.2 | 4.4 | 4.0 | 3.3 | 4.2 | 2.9 | 3.2 | 2.5 | 3.0 | 2.8 | – | – | – | –
NC(=O)C(=O)[C@H](Cc1ccccc1)NC(=O)c1cnoc1-c1ccccc1 [Compound 60, (S)—N-(4-amino-3,4-dioxo-1-phenylbutan-2-yl)-5-phenylisoxazole-4-carboxamide] | – | – | – | – | – | – | – | – | – | – | – | – | – | – | – | – | – | 4.0 | 3.7 | 3.3 | Interaction Distances P1-Ser206 [2]: 4.4 Å; Interaction Distances P2-Ala273 [2]: 4.1 Å; Interaction Distances P2-Gly208 [2]: 3.2 Å; Interaction Distances P2-Gly271 [2]: 3.2 Å; Interaction Distances P2-His272 [2]: 4.2 Å; Interaction Distances P2-Ser251 [2]: 4.4 Å; Interaction Distances P3-Gly207 [2]: 3.7 Å; Interaction Distances P3-Gly208 [2]: 3.3 Å; Interaction Distances P3-Ser209 [2]: 4.4 Å; Interaction Distances R^10-Gly271 [2]: 3.21 Å; Interaction Distances R^11-Gly208 [2]: 2.9 Å; Interaction Distances R^12-His272 [2]: 2.9 Å; Interaction Distances R^13-Cys115 [2]: 2.91 Å; Interaction Distances R^13-Gln109 [2]: 2.91 Å
CCCC[C@H](NC(=O)c1oc(C)nc1-c1ccccc1)C(=O)C(N)=O [Compound 265, (S)—N-(1-amino-1,2-dioxoheptan-3-yl)-2-methyl-4-phenyloxazole-5-carboxamide] | 3.7 | 3.7 | 4.4 | 4.0 | 4.1 | 3.2 | 2.9 | 4.2 | 3.3 | 3.8 | 3.4 | 3.8 | 2.9 | 3.2 | 2.4 | 3.1 | 2.9 | – | – | – | –
NC(=O)C(=O)[C@H](Cc1ccccc1)NC(=O)c1cn(C2CC2)nc1-c1ccccc1 [Compound 250, (S)—N-(4-amino-3,4-dioxo-1-phenylbutan-2-yl)-1-cyclopropyl-3-phenyl-1H-pyrazole-4-carboxamide] | – | – | – | – | – | – | – | – | – | – | – | – | – | – | – | – | – | 3.8 | 3.5 | 3.5 | Interaction Distances P1-Ser206 [2]: 4.1 Å; Interaction Distances P2-Ala273 [2]: 4.4 Å; Interaction Distances P2-Gly208 [2]: 3.3 Å; Interaction Distances P2-Gly271 [2]: 3.4 Å; Interaction Distances P2-His272 [2]: 4.6 Å; Interaction Distances P2-Ser251 [2]: 3.7 Å; Interaction Distances P3-Gly207 [2]: 3.6 Å; Interaction Distances P3-Gly208 [2]: 3.5 Å; Interaction Distances P3-Ser209 [2]: 3.8 Å; Interaction Distances R^10-Gly271 [2]: 3.28 Å; Interaction Distances R^11-Gly208 [2]: 2.98 Å; Interaction Distances R^12-His272 [2]: 2.81 Å; Interaction Distances R^13-Cys115 [2]: 2.96 Å; Interaction Distances R^13-Gln109 [2]: 3 Å
NC(=O)C(=O)[C@H](Cc1ccccc1)NC(=O)c1nsnc1-c1ccccc1 [Compound 72, (S)—N-(4-amino-3,4-dioxo-1-phenylbutan-2-yl)-4-phenyl-1,2,5-thiadiazole-3-carboxamide] | 3.9 | 3.5 | 4.0 | 3.5 | 3.6 | 3.0 | 3.2 | 3.7 | 4.1 | 3.8 | 3.3 | 4.2 | 3.2 | 2.9 | 2.6 | 2.9 | 2.8 | – | – | – | –
Cn1cc(C(=O)N[C@@H](Cc2ccccc2)C(=O)C(N)=O)c(-c2ccccc2)n1 [Compound 32, (S)—N-(4-amino-3,4-dioxo-1-phenylbutan-2-yl)-1-methyl-3-phenyl-1H-pyrazole-4-carboxamide] | 4.0 | 3.5 | 3.8 | 3.6 | 4.3 | 3.3 | 3.1 | 4.2 | 3.3 | 3.7 | 3.5 | 4.4 | 3.2 | 2.9 | 2.7 | 2.9 | 2.8 | – | – | – | –
